Test results published in article PMC12514245, “Impaired migration and lung invasion of human melanoma by a novel small molecule targeting the transmembrane domain of death receptor p75^NTR” (EMBO Molecular Medicine, 2025).
Several values for one entry are separate records, joined by “and”; a condition that tells them apart may be missing. Identical values can stand only once.

System: A875 NT cells
Assay: Wound healing cell motility assay, A875 NT
Format: cell-based, human
Details: for Wound area, Mean: N=3; for Wound area (Fold), Mean / Wound area (Fold), individual replicates: 10uM; for Wound area (Fold): A875 NT
Description: For wound healing assay, cells were grown until confluency and subjected to a wound across the cell mono-layer. Cells were then incubated with serum-free media either with DMSO or a small molecule (with or without 5 µM Q_VD_poH) and imaged at specific time-points. Cell migration is reflected as fold change in wound area over time.

[1] = 5μM Q_VD_poH + 10μM Div17E5, 0 hours
[2] = 5μM Q_VD_poH + 10μM Div17E5, 3 hours
[3] = 5μM Q_VD_poH + 10μM Div17E5, 6 hours
[4] = 5μM Q_VD_poH + 10μM Div17E5, 9 hours
[5] = 5μM Q_VD_poH + 10μM Div17E5, 12 hours
[6] = 5μM Q_VD_poH + 10μM Div17E5, 15 hours
[7] = 5μM Q_VD_poH + 10μM Div17E5, 18 hours
[8] = 5μM Q_VD_poH + 10μM Div17E5, 21 hours
[9] = 5μM Q_VD_poH + 10μM Div17E5, 24 hours

Oc1ccc(-c2cncc(Nc3ccc(Br)c(Cl)c3)n2)cc1 [Div17E5]
cell motility (wound healing): significantly impaired motility
Wound area, n1-n3 [1]: 1.151 Fold and 0.989 Fold and 0.859 Fold
Wound area, Mean [1]: 1.000 Fold
Wound area, n1-n3 [2]: 0.948 Fold and 1.003 Fold and 1.022 Fold
Wound area, Mean [2]: 0.991 Fold
Wound area, n1-n3 [3]: 0.944 Fold and 0.988 Fold and 1.047 Fold
Wound area, Mean [3]: 0.993 Fold
Wound area, n1-n3 [4]: 0.936 Fold and 0.934 Fold and 1.001 Fold
Wound area, Mean [4]: 0.957 Fold
Wound area, n1-n3 [5]: 0.937 Fold and 0.894 Fold and 1.002 Fold
Wound area, Mean [5]: 0.944 Fold
Wound area, n1-n3 [6]: 0.938 Fold and 0.874 Fold and 0.985 Fold
Wound area, Mean [6]: 0.932 Fold
Wound area, n1-n3 [7]: 0.920 Fold and 0.852 Fold and 0.976 Fold
Wound area, Mean [7]: 0.916 Fold
Wound area, n1-n3 [8]: 0.922 Fold and 0.829 Fold and 0.962 Fold
Wound area, Mean [8]: 0.904 Fold
Wound area, n1-n3 [9]: 0.916 Fold and 0.831 Fold and 0.939 Fold
Wound area, Mean [9]: 0.895 Fold
wound healing assay, comparison of Div17E5, MS_18 and MS_63 (10 µM): the better of the three
Wound area, Mean (10μM Div17E5, 0 hours): 1.000 Fold
Wound area, n1-n3 (10μM Div17E5, 3 hours): 1.026 Fold and 0.986 Fold and 1.104 Fold
Wound area, Mean (10μM Div17E5, 3 hours): 1.039 Fold
Wound area, n1-n3 (10μM Div17E5, 6 hours): 0.988 Fold and 0.956 Fold and 1.073 Fold
Wound area, Mean (10μM Div17E5, 6 hours): 1.006 Fold
Wound area, n1-n3 (10μM Div17E5, 9 hours): 0.922 Fold and 0.923 Fold and 1.017 Fold
Wound area, Mean (10μM Div17E5, 9 hours): 0.954 Fold
Wound area, n1-n3 (10μM Div17E5, 12 hours): 0.909 Fold and 0.918 Fold and 0.979 Fold
Wound area, Mean (10μM Div17E5, 12 hours): 0.935 Fold
Wound area, n1-n3 (10μM Div17E5, 15 hours): 0.913 Fold and 0.881 Fold and 0.951 Fold
Wound area, Mean (10μM Div17E5, 15 hours): 0.915 Fold
Wound area, n1-n3 (10μM Div17E5, 18 hours): 0.881 Fold and 0.866 Fold and 0.915 Fold
Wound area, Mean (10μM Div17E5, 18 hours): 0.887 Fold
Wound area, n1-n3 (10μM Div17E5, 21 hours): 0.886 Fold and 0.863 Fold and 0.915 Fold
Wound area, Mean (10μM Div17E5, 21 hours): 0.888 Fold
Wound area, n1-n3 (10μM Div17E5, 24 hours): 0.865 Fold and 0.854 Fold and 0.889 Fold
Wound area, Mean (10μM Div17E5, 24 hours): 0.870 Fold
Wound area (Fold), Mean (0 hours): 1 Fold
Wound area (Fold), individual replicates (0 hours): 1.000 Fold
Wound area (Fold), Mean (3 hours): 0.931 Fold
Wound area (Fold), individual replicates (3 hours): 0.928 Fold and 0.933 Fold
Wound area (Fold), Mean (6 hours): 0.912 Fold
Wound area (Fold), individual replicates (6 hours): 0.898 Fold and 0.926 Fold
Wound area (Fold), Mean (9 hours): 0.866 Fold
Wound area (Fold), individual replicates (9 hours): 0.856 Fold and 0.878 Fold
Wound area (Fold), Mean (12 hours): 0.895 Fold
Wound area (Fold), individual replicates (12 hours): 0.846 Fold and 0.944 Fold
Wound area (Fold), Mean (15 hours): 0.862 Fold
Wound area (Fold), individual replicates (15 hours): 0.814 Fold and 0.91 Fold
Wound area (Fold), Mean (18 hours): 0.863 Fold
Wound area (Fold), individual replicates (18 hours): 0.826 Fold and 0.899 Fold
Wound area (Fold), Mean (21 hours): 0.869 Fold
Wound area (Fold), individual replicates (21 hours): 0.805 Fold and 0.934 Fold
Wound area (Fold), Mean (24 hours): 0.869 Fold
Wound area (Fold), individual replicates (24 hours): 0.812 Fold and 0.927 Fold
Wound area (Fold) (1uM, 0 h, Mean): 1.000 Fold
Wound area (Fold) (1uM, 0 h, n1): 1.026 Fold
Wound area (Fold) (1uM, 0 h, n2): 0.960 Fold
Wound area (Fold) (1uM, 0 h, n3): 1.014 Fold
Wound area (Fold) (1uM, 3 h, Mean): 0.953 Fold
Wound area (Fold) (1uM, 3 h, n1): 0.950 Fold
Wound area (Fold) (1uM, 3 h, n2): 0.945 Fold
Wound area (Fold) (1uM, 3 h, n3): 0.963 Fold
Wound area (Fold) (1uM, 6 h, Mean): 0.896 Fold
Wound area (Fold) (1uM, 6 h, n1): 0.897 Fold
Wound area (Fold) (1uM, 6 h, n2): 0.884 Fold
Wound area (Fold) (1uM, 6 h, n3): 0.907 Fold
Wound area (Fold) (1uM, 9 h, Mean): 0.858 Fold
Wound area (Fold) (1uM, 9 h, n1): 0.855 Fold
Wound area (Fold) (1uM, 9 h, n2): 0.847 Fold
Wound area (Fold) (1uM, 9 h, n3): 0.872 Fold
Wound area (Fold) (1uM, 12 h, Mean): 0.818 Fold
Wound area (Fold) (1uM, 12 h, n1): 0.819 Fold
Wound area (Fold) (1uM, 12 h, n2): 0.796 Fold
Wound area (Fold) (1uM, 12 h, n3): 0.839 Fold
Wound area (Fold) (1uM, 15 h, Mean): 0.788 Fold
Wound area (Fold) (1uM, 15 h, n1): 0.792 Fold
Wound area (Fold) (1uM, 15 h, n2): 0.758 Fold
Wound area (Fold) (1uM, 15 h, n3): 0.814 Fold
Wound area (Fold) (1uM, 18 h, Mean): 0.765 Fold
Wound area (Fold) (1uM, 18 h, n1): 0.775 Fold
Wound area (Fold) (1uM, 18 h, n2): 0.730 Fold
Wound area (Fold) (1uM, 18 h, n3): 0.790 Fold
Wound area (Fold) (1uM, 21 h, Mean): 0.730 Fold
Wound area (Fold) (1uM, 21 h, n1): 0.735 Fold
Wound area (Fold) (1uM, 21 h, n2): 0.696 Fold
Wound area (Fold) (1uM, 21 h, n3): 0.758 Fold
Wound area (Fold) (1uM, 24 h, Mean): 0.705 Fold
Wound area (Fold) (1uM, 24 h, n1): 0.708 Fold
Wound area (Fold) (1uM, 24 h, n2): 0.669 Fold
Wound area (Fold) (1uM, 24 h, n3): 0.737 Fold
Wound area (Fold) (2uM, 0 h, Mean): 1.000 Fold
Wound area (Fold) (2uM, 0 h, n1): 0.9445 Fold
Wound area (Fold) (2uM, 0 h, n2): 1.024 Fold
Wound area (Fold) (2uM, 0 h, n3): 1.031 Fold
Wound area (Fold) (2uM, 3 h, Mean): 0.936 Fold
Wound area (Fold) (2uM, 3 h, n1): 0.9336 Fold
Wound area (Fold) (2uM, 3 h, n2): 0.9313 Fold
Wound area (Fold) (2uM, 3 h, n3): 0.9444 Fold
Wound area (Fold) (2uM, 6 h, Mean): 0.874 Fold
Wound area (Fold) (2uM, 6 h, n1): 0.8802 Fold
Wound area (Fold) (2uM, 6 h, n2): 0.851 Fold
Wound area (Fold) (2uM, 6 h, n3): 0.8894 Fold
Wound area (Fold) (2uM, 9 h, Mean): 0.841 Fold
Wound area (Fold) (2uM, 9 h, n1): 0.8687 Fold
Wound area (Fold) (2uM, 9 h, n2): 0.7852 Fold
Wound area (Fold) (2uM, 9 h, n3): 0.8693 Fold
Wound area (Fold) (2uM, 12 h, Mean): 0.798 Fold
Wound area (Fold) (2uM, 12 h, n1): 0.822 Fold
Wound area (Fold) (2uM, 12 h, n2): 0.7423 Fold
Wound area (Fold) (2uM, 12 h, n3): 0.8308 Fold
Wound area (Fold) (2uM, 15 h, Mean): 0.764 Fold
Wound area (Fold) (2uM, 15 h, n1): 0.7994 Fold
Wound area (Fold) (2uM, 15 h, n2): 0.707 Fold
Wound area (Fold) (2uM, 15 h, n3): 0.7869 Fold
Wound area (Fold) (2uM, 18 h, Mean): 0.723 Fold
Wound area (Fold) (2uM, 18 h, n1): 0.7549 Fold
Wound area (Fold) (2uM, 18 h, n2): 0.6745 Fold
Wound area (Fold) (2uM, 18 h, n3): 0.7404 Fold
Wound area (Fold) (2uM, 21 h, Mean): 0.674 Fold
Wound area (Fold) (2uM, 21 h, n1): 0.6977 Fold
Wound area (Fold) (2uM, 21 h, n2): 0.6158 Fold
Wound area (Fold) (2uM, 21 h, n3): 0.7086 Fold
Wound area (Fold) (2uM, 24 h, Mean): 0.637 Fold
Wound area (Fold) (2uM, 24 h, n1): 0.6671 Fold
Wound area (Fold) (2uM, 24 h, n2): 0.5815 Fold
Wound area (Fold) (2uM, 24 h, n3): 0.6623 Fold
wound healing assay (low micromolar and submicromolar concentrations): totally inactive
